ChEMBL document CHEMBL5584298, “Discovery of Cytotoxic Nitric Oxide-Releasing Piperlongumine Derivatives Targeting Wnt/β-Catenin in Colon Cancer Cells” (J Nat Prod, 2024)

What was measured:
HCT-116 [1] = experiment: Antiproliferative activity against human HCT-116 cells incubated for 24 hrs by MTT assay; format: functional, cell-based; conditions: HCT-116, 24 h
HCT-116 [2] = experiment: Antiproliferative activity against human HCT-116 cells incubated for 72 hrs by MTT assay; format: functional, cell-based; conditions: HCT-116, 72 h
A549 [3] = experiment: Antiproliferative activity against human A549 cells incubated for 72 hrs by MTT assay; format: functional, cell-based; conditions: A549, 72 h
HCT-116 [4] = experiment: Antiproliferative activity against human HCT-116 cells incubated for 24 to 72 hrs by MTT assay; format: functional, cell-based; conditions: dose 0.1-100 µM, time 24-72 hrs
HCT-116 [5] = experiment: Antiproliferative activity against human HCT-116 cells at 0.1 to 100 uM by MTT assay; format: functional, cell-based; conditions: dose 0.1-100 µM, time 24-72 hrs, TDE = time-dependent effect
HCT-116 [6] = experiment: Downregulation of phosphorylated GSK-3beta at Ser9 residue expression in human HCT-116 cells after 24 hrs by Western blotting analysis; format: functional, cell-based; conditions: dose 0.5-2 µM
HCT-116 [7] = experiment: Downregulation of beta-catenin expression in human HCT-116 cells cytosol after 24 hrs by Western blotting analysis; format: functional, subcellular; conditions: dose 0.5-2 µM
[8] = Selectivity index, ratio of IC50 for human CCD-841CoN cells to IC50 for human HCT-116 cells; format: toxicity; conditions: CCD-841CoN cells and HCT-116 cells, read-out: Ratio IC50
HCT-116 [9] = experiment: Downregulation of beta-catenin expression in human HCT-116 cells nucleus after 24 hrs by Western blotting analysis; format: functional, subcellular; conditions: dose 0.5-2 µM
HCT-116 [10] = experiment: Induction of NO production in human HCT-116 cells incubated for 6 hrs by Griess reagent based assay; format: functional, cell-based; conditions: dose 1-10 µM
[11] = Cytotoxicity against human CCD-841CoN cells incubated for 24 hrs by MTT assay; format: toxicity, cell-based
A549 [12] = experiment: Antiproliferative activity against human A549 cells incubated for 24 to 72 hrs by MTT assay; format: functional, cell-based; conditions: dose 0.1-100 µM, time 24-72 hrs
A549 [13] = experiment: Antiproliferative activity against human A549 cells incubated for 24 hrs by MTT assay; format: functional, cell-based; conditions: A549, 24 h
A549 [14] = experiment: Antiproliferative activity against human A549 cells at 0.1 to 100 uM by MTT assay; format: functional, cell-based; conditions: dose 0.1-100 µM, time 24-72 hrs, TDE = time-dependent effect
[15] = Cytotoxicity against human CCD-841CoN cells incubated for 72 hrs by MTT assay; format: toxicity, cell-based

O=c1[nH]cc(F)c(=O)[nH]1 [FLUOROURACIL]
IC50 (HCT-116 [1]): 29.6 µM
IC50 (HCT-116 [2]): 19.7 µM
IC50 (A549 [3]): 24.2 µM

CCN(CC)OC(=O)CCCCOc1c(OC)cc(/C=C/C(=O)N2CCC=C(Cl)C2=O)cc1OC
IC50 (HCT-116 [1]): 6.3 µM
IC50 (HCT-116 [2]): 2.8 µM

CCN(CC)/[N+]([O-])=N/OCOC(=O)CCCCOc1c(OC)cc(/C=C/C(=O)N2CCC=C(Cl)C2=O)cc1OC
Activity (HCT-116 [4]): Dose-Dependent Effect
IC50 (HCT-116 [1]): 0.9 µM
Activity (HCT-116 [5]): Tde
Activity (HCT-116 [6]): Dose-Dependent Effect
Activity (HCT-116 [7]): Dose-Dependent Effect
IC50 (HCT-116 [2]): 0.6 µM
selectivity ratio [8]: > 10
Activity (HCT-116 [9]): Dose-Dependent Effect
Activity (HCT-116 [10]): Dose-Dependent Effect
IC50 at 24 h [11]: 11.3 µM
Activity (A549 [12]): Dose-Dependent Effect
IC50 (A549 [3]): 0.6 µM
IC50 (A549 [13]): 0.8 µM
Activity (A549 [14]): Tde
IC50 at 72 h [15]: 6.1 µM

COc1cc(/C=C/C(=O)N2CCC=CC2=O)cc(OC)c1OC [PIPLARTINE]
Activity (HCT-116 [4]): Dose-Dependent Effect
IC50 (HCT-116 [1]): 13.3 µM
Activity (HCT-116 [5]): Tde
IC50 (HCT-116 [2]): 8.6 µM
Activity (A549 [12]): Dose-Dependent Effect
IC50 (A549 [3]): 7.2 µM
IC50 (A549 [13]): 13.2 µM
Activity (A549 [14]): Tde

COc1cc(/C=C/C(=O)NOC/N=[N+](\[O-])N2CCOCC2)cc(OC)c1OCCCCC(=O)OCO/N=[N+](\[O-])N1CCOCC1
Activity (HCT-116 [4]): Dose-Dependent Effect
IC50 (HCT-116 [1]): 35.6 µM
Activity (HCT-116 [5]): Tde
IC50 (HCT-116 [2]): 28 µM
Activity (HCT-116 [10]): Dose-Dependent Effect
Activity (A549 [12]): Dose-Dependent Effect
IC50 (A549 [3]): 10.6 µM
IC50 (A549 [13]): 18.4 µM
Activity (A549 [14]): Tde

CCN(CC)/[N+]([O-])=N/CONC(=O)/C=C/c1cc(OC)c(OCCCCC(=O)OCO/N=[N+](\[O-])N(CC)CC)c(OC)c1
Activity (HCT-116 [4]): Dose-Dependent Effect
IC50 (HCT-116 [1]): 5.4 µM
Activity (HCT-116 [5]): Tde
IC50 (HCT-116 [2]): 3.9 µM
Activity (HCT-116 [10]): Dose-Dependent Effect
Activity (A549 [12]): Dose-Dependent Effect
IC50 (A549 [3]): 3.4 µM
IC50 (A549 [13]): 5.7 µM
Activity (A549 [14]): Tde

COc1cc(/C=C/C(=O)N2CCC=C(Cl)C2=O)cc(OC)c1OC
IC50 (HCT-116 [1]): 11.4 µM
IC50 (HCT-116 [2]): 6.2 µM
IC50 (A549 [13]): 10.2 µM

COc1cc(/C=C/C(=O)N2CCC=C(Cl)C2=O)cc(OC)c1OCCCCC(=O)OCO/N=[N+](\[O-])N1CCOCC1
Activity (HCT-116 [4]): Dose-Dependent Effect
IC50 (HCT-116 [1]): 1.1 µM
Activity (HCT-116 [5]): Tde
IC50 (HCT-116 [2]): 0.7 µM
Activity (HCT-116 [10]): Dose-Dependent Effect
Activity (A549 [12]): Dose-Dependent Effect
IC50 (A549 [3]): 0.7 µM
IC50 (A549 [13]): 1.1 µM
Activity (A549 [14]): Tde
